The nature of data set [1]: LogD7.4 by low-volume octanol/PBS shake-flask method. The conditions noted are these: n-octanol/PBS; octanol-water partition coefficient, shake-flask method at pH 7.4. The format is physicochemical. As for the experimental part: Distribution ratios (LogD7.4) were determined by a low-volume octanol/PBS shake-flask method. Briefly, saturated solutions of octanol and PBS were prepared by mixing equal volumes of n-octanol and PBS (pH 7.4) before being left for three days. The octanol and PBS phases were then carefully separated and left to stand for at least 24 h. Stock solutions (0.1–0.5 mM) of each compound were prepared in octanol saturated with PBS. The stock solutions were diluted with octanol saturated with PBS containing and inter-assay control (acridone) to a final compound concentration of 50 μM. Aliquots (450 μL) were then taken in triplicate, and 450 μL of PBS saturated with octanol was added into amber tubes. The tubes were then sealed in parafilm and rotated for 90 min at 30 rpm to equilibrate. After centrifugation (15,000× g, 5 min, 20°C) the octanol and PBS phases were separated into different tubes and the octanol phase diluted with methanol (1:5 v/v). Both phases were analyzed by HPLC (diode-array detector at 364 ± 10 nm) by injecting 50 μL of the PBS phase and 15 μL of the diluted octanol phase. The results were then expressed as the log ratio of the peak areas obtained from the octanol and PBS phases corrected for dilution and injection volume.

For data set [2], the system named is 100% HCT116 AKR1C3 MCLs. Briefly: 3D multicellular layer (MCL) assay, 100% HCT116 AKR1C3. Type of data set: cell-based, human. The conditions noted are these: 10 µM prodrug, five hours. As for the experimental part: Similar to the 3D NfsA_Ec screen, increased lipophilicity also tracked with increased LCK in 100% AKR1C3-expressing MCLs (R = 0.78, R^2 = 0.61). […] These three lead compounds were taken forward into in vivo studies.
(§1) Multicellular layers (MCLs) were grown, and bystander effect assays were performed as previously reported.
Figure 4 Lipophilic structure–activity relationship for AKR1C3 in three dimensions. (A) Plating efficiency in 100% HCT116 WT and 100% HCT116 AKR1C3 MCLs exposed to 10 µM prodrug for five hours before dissociation and plating to determine clonogenic survival. (B) Correlation between Log cell kill and LogD7.4. R = 0.78, R^2 = 0.61. Log cell kill = Log CS (control)–Log CS (treated), where CS is the number of clonogenic survivors per MCL.

For data set [3], the system named is H1299 WT cells. Briefly: Anti-proliferative IC50 assay, H1299 WT cells. The conditions noted are these: Homo sapiens, NCI-H1299, 4 hour drug exposure, regrowth for five days. Type of data set: cell-based. As for the experimental part: (§2) The anti-proliferative IC50 was determined as the concentration of prodrug required for 50% inhibition of cell growth, following drug exposure for four hours, then five days regrowth in the absence of drug. Assays were performed under oxic or anoxic conditions as described previously, the latter by using a 5% H2/palladium catalyst scrubbed Bactron anaerobic chamber (Sheldon Manufacturing, Cornelius, OR, USA) to achieve severe anoxia (<10 ppm O2 gas phase) during prodrug exposure.
(§3) Supplementary Table S2. In vitro anti-proliferative activity of the three lead prodrug compounds in H1299 cells expressing E. coli NfsA. IC50 values were determined as the concentration of drug required to inhibit cell growth by 50% of untreated controls following 4 hour drug exposure, with washing and regrowth for five days.
(§4) Compound WT NfsA_Ec Ratio

Data set [4] deals with H1299 cells expressing E. coli NfsA. Briefly: Anti-proliferative IC50 assay, H1299 cells expressing E. coli NfsA. The format is cell-based. The conditions noted are these: for IC50: Escherichia coli, NCI-H1299, H1299 NfsA_Ec, 4 hour drug exposure, regrowth for five days; for WT:NfsA_Ec IC50 ratio: H1299 WT vs H1299 NfsA_Ec. How it is done: as §2, §3, §4
The test system of data set [5] is HCT116 cells expressing E. coli NfsA nitroreductase (NfsA_Ec). Briefly: Low cell density anti-proliferative (IC50) assay, HCT116 NfsA_Ec vs HCT116 WT. Type of data set: cell-based. To be noted: aerobic, five days regrowth; for IC50: Escherichia coli, HCT-116, four hour drug exposure. How it is done:
(§5) Next, we evaluated the compounds for activity with the major nitroreductase from E. coli, NfsA (NfsA_Ec), or the human aldo-keto reductase AKR1C3, using a low cell density anti-proliferative (IC50) assay (Figure 2). The sensitivity of HCT116 wild-type (WT) cells and HCT116 cells over-expressing either NfsA_Ec or AKR1C3 was examined under aerobic conditions.
as §2
Figure 2 In vitro anti-proliferative activity of the novel lipophilic analogue series in HCT116 cells expressing AKR1C3 and E. coli NfsA (NfsA_Ec). IC50 values were determined as the concentration of drug required to inhibit cell growth by 50% of untreated controls following four hour drug exposure, with washing and regrowth for five days. Respective IC50 ratios (WT:AKR1C3 or WT:NfsA_Ec) are indicated above the bars for each compound. TEXT PRINTED IN THE PICTURE: PR-104A: HCT116 AKR1C3: 84; HCT116 NfsA_Ec: 2680 | 1: HCT116 AKR1C3: 1.8; HCT116 NfsA_Ec: 242 | 2: HCT116 AKR1C3: 1.6; HCT116 NfsA_Ec: 1431 | 3: HCT116 AKR1C3: 2.3; HCT116 NfsA_Ec: 913 | 4: HCT116 AKR1C3: 3.3; HCT116 NfsA_Ec: 594 | 5: HCT116 AKR1C3: 3.3; HCT116 NfsA_Ec: 152 | 6: HCT116 AKR1C3: 2.4; HCT116 NfsA_Ec: 741 | 7: HCT116 AKR1C3: 3.2; HCT116 NfsA_Ec: 174 | 8: HCT116 AKR1C3: 4.9; HCT116 NfsA_Ec: 81 | 9: HCT116 AKR1C3: 3.4; HCT116 NfsA_Ec: 147 DOUBTS OF THE COPYIST ABOUT THIS PICTURE: All values: the picture prints no measure or unit for the grey numbers above the blue and red bars. […] Each is given only with the cell line of the bar it stands over, as named in the picture's key.

Data set [6] relates to 97% HCT116 WT/3% HCT116 NfsA_Ec MCLs. Briefly: 3D multicellular layer (MCL) bystander assay, 97% HCT116 WT/3% HCT116 NfsA_Ec. Type of data set: cell-based. To be noted: 10 µM prodrug, five hours.
Excerpt: We then examined our compounds in a high cell density, 3D multi-cellular layer (MCL) assay in order to determine tissue penetration capacity of the active metabolite(s) and the potential for an efficient bystander effect. Mixed MCLs consisting of a small percentage HCT116 NfsA_Ec cells (3%) in the presence of HCT116 WT cells (97%) were used as a robust screen for efficient bystander cell kill. Here, active cytotoxic metabolites can diffuse out of the minority NfsA_Ec ‘prodrug-activating’ cell population into the WT ‘target’ population, causing death of cells that would not normally be sensitive to that concentration of prodrug.
as §1
Figure 3 Lipophilic structure–activity relationship for NfsA_Ec in three dimensions. (A) Plating efficiency in 100% HCT116 WT and 97% HCT116 WT/3% HCT116 NfsA_Ec MCLs exposed to 10 µM prodrug for five hours before dissociation and plating to determine clonogenic survival. (B) Correlation between Log cell kill and LogD7.4. R = 0.63, R^2 = 0.40. Log cell kill = Log CS (control)–Log CS (treated), where CS is the number of clonogenic survivors per MCL.

For data set [7], the system named is HCT116 cells over-expressing AKR1C3. Briefly: Low cell density anti-proliferative (IC50) assay, HCT116 AKR1C3 vs HCT116 WT. Type of data set: cell-based, human. To be noted: HCT116 WT vs HCT116 AKR1C3, aerobic, four hour exposure, five days regrowth. How it is done: as §5, §2
Figure 2 In vitro anti-proliferative activity of the novel lipophilic analogue series in HCT116 cells expressing AKR1C3 and E. coli NfsA (NfsA_Ec). IC50 values were determined as the concentration of drug required to inhibit cell growth by 50% of untreated controls following four hour drug exposure, with washing and regrowth for five days. Respective IC50 ratios (WT:AKR1C3 or WT:NfsA_Ec) are indicated above the bars for each compound. […]

The target in data set [8] is T1, purified His6-tagged NfsA_Ec (Escherichia coli, UniProt P17117).
T1 construct: His6; made in house
T1 sequence (P17117 1-240): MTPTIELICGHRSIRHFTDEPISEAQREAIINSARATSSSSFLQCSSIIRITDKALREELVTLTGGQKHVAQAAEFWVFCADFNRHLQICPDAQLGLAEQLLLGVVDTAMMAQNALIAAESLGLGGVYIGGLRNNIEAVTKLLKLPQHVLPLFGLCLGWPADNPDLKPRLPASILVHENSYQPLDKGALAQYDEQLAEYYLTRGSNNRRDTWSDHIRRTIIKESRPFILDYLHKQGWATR
Further details: method as in earlier work. To be noted: apparent, 250 µM NADPH; cited from earlier work.

On the set-up of data set [9]: method as in PMID 34959631. To be noted: mice, PR-104 at 388 µmol/kg (human equivalent dose); cited from earlier work.

For orientation: logD means the decadic logarithm of the distribution of all forms, ionised or not, between an organic phase and buffer at a given pH. The IC50 is the point on the concentration scale where inhibition reaches its midpoint. Lower therefore signals higher potency. With `CS(=O)(=O)c1cc([N+](=O)[O-])c(C(=O)NCCO)cc1N(CCBr)CCBr` [Compound 1, 5-(Bis(2-bromoethyl)amino)-N-(2-hydroxyethyl)-4-(methylsulfonyl)-2-nitrobenzamide], in data set [1], the logD at 90 min was found to be 1. For the same compound, the “Log cell kill (LCK)” value in data set [2] is given as at most 0.11. The IC50 came out at 166000 ± 26000 nM in data set [3] and 1180 ± 40 nM in data set [4]. Further, in data set [4], the “WT:NfsA_Ec IC50 ratio” value came out at 141 fold.

The melting point is the temperature of the solid-liquid transition. `CN(CCO)C(=O)c1cc(N(CCBr)CCBr)c(S(C)(=O)=O)cc1[N+](=O)[O-]` [Compound 2, 5-(Bis(2-bromoethyl)amino)-N-(2-hydroxyethyl)-N-methyl-4-(methylsulfonyl)-2-nitrobenzamide]: the melting point was in the range of 138 to 140 °C. Also, the logD at 90 min in data set [1] was 1.2. For the same compound, in data set [2], the “Log cell kill (LCK)” value is given as at most 0.11. The IC50 in data set [3] was 175000 ± 3500 nM. Also, in data set [4], inhibition was half-maximal at 170 ± 30 nM (IC50) and the “WT:NfsA_Ec IC50 ratio” value was found to be 1029 fold.

In turn, `CCCN(CCO)C(=O)c1cc(N(CCBr)CCBr)c(S(C)(=O)=O)cc1[N+](=O)[O-]` [Compound 4] displayed a log distribution coefficient (logD) at 90 min in data set [1] of 2.1. Besides, the midpoint of inhibition in data set [5], the IC50, lay at 170 nM. The “Log cell kill (LCK)” value in data set [6] was 3.06.

In data set [1], `CCCS(=O)(=O)c1cc([N+](=O)[O-])c(C(=O)N(C)CCO)cc1N(CCBr)CCBr` [Compound 9] yielded a logD at 90 min of 2.1. Moreover, the IC50 in [5] was found to be 1000 nM. Also, the “Log cell kill (LCK)” value in data set [6] is recorded as 1.6.

Broadly, the Km is the substrate concentration at which the rate is half of its maximum. The kcat is the maximal rate divided by the concentration of active sites. In the case of `CS(=O)(=O)OCCN(CCBr)c1c(C(=O)NCCO)cc([N+](=O)[O-])cc1[N+](=O)[O-]` [PR-104A, reference compound], the IC50 came to 30 nM in [5], 131000 ± 9900 nM in data set [3] and 46 ± 3 nM in [4]. The “WT:NfsA_Ec IC50 ratio” value in data set [5] (HCT116 WT vs HCT116 NfsA_Ec, four hour exposure) was 2680 fold; in data set [4], 2848 fold. Moreover, the “WT:AKR1C3 IC50 ratio” value in [7] is listed as 84 fold. In addition, the Michaelis constant (Km) in data set [8] was 100 ± 11 µM. Besides, the kcat in data set [8] was 12 ± 1.4 s⁻¹. Moreover, the “Plasma AUCfree of PR-104A” value in data set [9] was 38 µM-h.

The record behind these values is PMC8877822, “Interrogation of the Structure–Activity Relationship of a Lipophilic Nitroaromatic Prodrug Series Designed for Cancer Gene Therapy Applications” (Pharmaceuticals, 2022).
